According to patent US11034658B2, “Pyridinyl pyrazoles as modulators of RORγT” (Janssen Pharmaceutica NV, priority 2018, dated 2021):

Tests used:
[1] = target: human RORγt ligand binding domain (RORγt LBD) (Homo sapiens (Human), UniProt P51449); test: RORγt ThermoFluor assay
[2] = target: full-length human RORγt (GAL4-DBD-RORγt fusion) in HEK293T cells (Homo sapiens (Human), UniProt P51449); test: RORγt (full-length human) reporter assay, conditions A or B; format: cell-based; conditions: for IC50: HEK293T cells, read-out: RORγt (FL) Reporter Assay A or B, IC50; for inhibition at 3 µM / inhibition at 2 µM / inhibition at 6 µM: HEK-293T; for inhibition at 3 µM: 3 μM compound concentration (footnote *); for inhibition at 3 µM / inhibition at 2 µM: read-out: RORγt (FL) Reporter Assay A or B, % inhibition; for inhibition at 2 µM: 2 μM compound concentration; for inhibition at 6 µM: 6 μM compound, read-out: RORγt (FL) Reporter Assay A or B, % inhibition @ 6 μM
In short: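 HEK293T cells expressing GAL4-DBD-RORγt fusion (96- or 384-well formats, DMEM/10% FBS) exposed to compound overnight (16–20 h). Firefly luciferase normalized to DMSO and saturating reference compound, then to Renilla; IC50 from dose curve, % inhibition versus DMSO.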

[3] = test system: IL-17 production by human CD4+ T cells under Th17 differentiation; test: Human Th17 assay (IL-17 production by CD4 T cells); format: cell-based; conditions: 72 h, IL-17 after 3 days
Text: The human Th17 assay tests the effect of RORγt modulatory compounds on IL-17 production by CD4 T cells under conditions which favor Th17 differentiation. Total CD4^+ T cells were isolated from the peripheral blood mononuclear cells (PBMC) of healthy donors using a CD4^+ T cell isolation kit II, following the manufacturer's instructions (Miltenyi Biotec). Cells were resuspended in a medium of RPMI-1640 supplemented with 10% fetal bovine serum, penicillin, streptomycin, glutamate, and β-mercaptoethanol and were added to 96-well plates at 1.5×10^5 per 100 μL per well. 50 μL of compound at titrated concentrations in DMSO were added into each well at final DMSO concentration at 0.2%. Cells were incubated for 1 hour, then 50 μL of Th17 cell differentiation medium was added to each well. The final concentrations of antibodies and cytokines (R&D Systems) in differentiation medium were: 3×10^6/mL anti-CD3/CD28 beads (prepared using human T cell activation/expansion kit, Miltenyi Biotec), 10 μg/mL anti-IL4, 10 μg/mL anti-IFNγ, 10 ng/mL IL1β, 10 ng/mL IL23, 50 ng/mL IL6, 3 ng/mL TGFβ and 20 U/mL IL2. Cells were cultured at 37° C. and 5% CO2 for 3 days. Supernatants were collected and the accumulated IL-17 in culture was measured by using MULTI-SPOT® Cytokine Plate following manufacture's instruction (Meso Scale Discovery). The plate was read using Sector Imager 6000, and IL-17 concentration was extrapolated from the standard curve. The IC50s were determined by GraphPad.

[4] = test system: Th17-dependent learned helplessness; conditions: mice; cited from earlier work
[5] = test system: obese diabetic mice; conditions: cited from earlier work

human RORγt ligand binding domain (RORγt LBD), sequence (P51449 other isoform, or with tags, fused parts or gaps): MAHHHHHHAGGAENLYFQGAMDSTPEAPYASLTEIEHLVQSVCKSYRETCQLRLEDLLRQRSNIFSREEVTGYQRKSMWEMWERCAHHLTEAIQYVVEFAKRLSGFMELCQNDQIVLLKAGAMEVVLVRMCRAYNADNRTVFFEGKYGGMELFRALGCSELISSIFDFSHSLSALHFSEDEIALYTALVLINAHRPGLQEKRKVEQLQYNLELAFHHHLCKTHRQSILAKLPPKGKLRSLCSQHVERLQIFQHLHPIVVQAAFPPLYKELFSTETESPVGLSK
full-length human RORγt (GAL4-DBD-RORγt fusion) in HEK293T cells, sequence (P51449 other isoform, or with tags, fused parts or gaps): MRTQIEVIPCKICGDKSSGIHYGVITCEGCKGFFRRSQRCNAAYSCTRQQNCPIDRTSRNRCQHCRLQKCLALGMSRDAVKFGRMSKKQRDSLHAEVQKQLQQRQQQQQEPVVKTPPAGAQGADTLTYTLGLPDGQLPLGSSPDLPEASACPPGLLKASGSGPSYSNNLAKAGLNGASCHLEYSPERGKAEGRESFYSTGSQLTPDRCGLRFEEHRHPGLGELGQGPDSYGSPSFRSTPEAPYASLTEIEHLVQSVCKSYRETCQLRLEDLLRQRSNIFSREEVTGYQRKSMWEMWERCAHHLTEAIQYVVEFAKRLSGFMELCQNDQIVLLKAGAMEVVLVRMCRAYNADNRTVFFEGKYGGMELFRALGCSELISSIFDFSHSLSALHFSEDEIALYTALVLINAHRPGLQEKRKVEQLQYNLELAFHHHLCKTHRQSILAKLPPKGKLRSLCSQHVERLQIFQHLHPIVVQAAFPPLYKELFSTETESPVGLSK

Row | SMILES | Kd [1] [nM] | IC50 [2] [nM] | inhibition at 3 µM [2] [%] | IC50 [3] [nM] | other results
1 | CCc1cc(C[C@@H](C)C(F)(F)F)ncc1-c1c(Cl)c(C(=O)NC[C@H]2CC[C@H](S(C)(=O)=O)CC2)nn1CC (relative stereo) [Example 57, 4-Chloro-1-ethyl-5-(4-ethyl-6-((R*)-3,3,3-trifluoro-2-methylpropyl)pyridin-3-yl)-N-((1r,4R)-4-(methylsulfonyl)cyclohexyl)methyl)-1H-pyrazole-3-carboxamide] | 20 | 340 | 43 | 450 | 
2 | CCn1nc(C(=O)NC[C@H]2CC[C@H](S(C)(=O)=O)CC2)c(Cl)c1-c1cnc(C[C@H](C)C(F)(F)F)cc1OC (single isomer, unassigned) [Example 62, 4-Chloro-1-ethyl-5-(4-methoxy-6-((S*)-3,3,3-trifluoro-2-methylpropyl)pyridin-3-yl)-N-((1r,4r)-4-(methylsulfonyl)cyclohexyl)methyl)-1H-pyrazole-3-carboxamide] | 17 | 180 |  | 81 | inhibition at 2 µM [2]: 89%
3 | CCn1nc(C(=O)NC[C@]2(O)CC[C@@H](S(C)(=O)=O)CC2)c(Cl)c1-c1cnc(CC(C)(C)C(F)(F)F)cc1OC(F)F [Example 10, 4-Chloro-5-(4-(difluoromethoxy)-6-(3,3,3-trifluoro-2,2-dimethylpropyl)pyridin-3-yl)-1-ethyl-N-(((1s,4s)-1-hydroxy-4-(methylsulfonyl)cyclohexyl)methyl)-1H-pyrazole-3-carboxamide] | 3.2 | 14 | 98 | 48 | 
4 | CCn1nc(C(=O)NC[C@]2(O)CC[C@@H](S(C)(=O)=O)CC2)c(Cl)c1-c1cnc(O[C@H](C)C(F)(F)F)cc1OC [Example 63, 4-Chloro-1-ethyl-N-(((1r,4R)-1-hydroxy-4-(methylsulfonyl)cyclohexyl)methyl)-5-(4-methoxy-6-(((R)-1,1,1-trifluoropropan-2-yl)oxy)pyridin-3-yl)-1H-pyrazole-3-carboxamide] | 12 | 140 |  |  | inhibition at 6 µM [2]: 86%
5 | CCn1nc(C(=O)NC[C@H]2CC[C@H](S(C)(=O)=O)CC2)c(Cl)c1-c1cnc(O[C@@H](C)C(F)(F)F)cc1OC [Example 64] | 15 | 280 |  |  | inhibition at 2 µM [2]: 39%
6 | CC(=O)Nc1nc(C)c(S(=O)(=O)Nc2ccc(C(O)(C(F)(F)F)C(F)(F)F)cc2)s1 [SR1001] |  |  |  |  | Th17-dependent learned helplessness [4]: reduced Th17-dependent learned helplessness
7 | CC(=O)N1CCN(Cc2ccc(-c3ccc(C(O)(C(F)(F)F)C(F)(F)F)cc3)cc2)CC1 [SR1555] |  |  |  |  | body weight [5]: reduced body weight; fat mass [5]: significant reduction in fat mass; food intake [5]: modest reduction in food intake; insulin sensitivity [5]: improved insulin sensitivity

Second part, led by results:

Row | Kd [1] [nM] | IC50 [2] [nM] | inhibition at 3 µM [2] [%] | IC50 [3] [nM] | SMILES | other results
8 | 43 | > 2900 | 23 | 730 | CCc1cc(C[C@@H](C)C(F)(F)F)ncc1-c1c(C)c(C(=O)NC[C@H]2CC[C@H](S(C)(=O)=O)CC2)nn1CC (relative stereo) [Example 58, 1-Ethyl-5-(4-ethyl-6-((R*)-3,3,3-trifluoro-2-methylpropyl)pyridin-3-yl)-4-methyl-N-((1r,4R)-4-(methylsulfonyl)cyclohexyl)methyl)-1H-pyrazole-3-carboxamide] | 
9 | 120 | 2300 | 30 | 370 | CCc1cc(C[C@@H](C)C(F)(F)F)ncc1-c1c(Cl)c(C(=O)NC[C@]2(O)CC[C@@H](S(C)(=O)=O)CC2)nn1CC (single isomer, unassigned) [Example 56, 4-Chloro-1-ethyl-5-(4-ethyl-6-((R*)-3,3,3-trifluoro-2-methylpropyl)pyridin-3-yl)-N-(((1s,4S)-1-hydroxy-4-(methylsulfonyl)cyclohexyl)methyl)-1H-pyrazole-3-carboxamide] | 
10 | 11 | 56 | 100 | 51 | CCn1nc(C(=O)NC[C@]2(O)CC[C@@H](S(C)(=O)=O)CC2)c(C)c1-c1cnc(CC(C)(C)C(F)(F)F)cc1OC(F)F [Example 8, 5-(4-(Difluoromethoxy)-6-(3,3,3-trifluoro-2,2-dimethylpropyl)pyridin-3-yl)-1-ethyl-N-(((1s,4s)-1-hydroxy-4-(methylsulfonyl)cyclohexyl)methyl)-4-methyl-1H-pyrazole-3-carboxamide] | 
11 | 0.75 | 8.1 | 117 | 11 | CCn1nc(C(=O)NC[C@H]2CC[C@H](S(C)(=O)=O)CC2)c(Cl)c1-c1cnc(CC(C)(C)C(F)(F)F)cc1OC(F)F [Example 9, 4-Chloro-5-(4-(difluoromethoxy)-6-(3,3,3-trifluoro-2,2-dimethylpropyl)pyridin-3-yl)-1-ethyl-N-(((1r,4r)-4-(methylsulfonyl)cyclohexyl)methyl)-1H-pyrazole-3-carboxamide] | 
12 | 2.2 | 11 | 91 | 38 | CCn1nc(C(=O)NC[C@H]2CC[C@H](S(C)(=O)=O)CC2)c(C)c1-c1cnc(CC(C)(C)C(F)(F)F)cc1OC(F)F [Example 13, 5-(4-(Difluoromethoxy)-6-(3,3,3-trifluoro-2,2-dimethylpropyl)pyridin-3-yl)-1-ethyl-4-methyl-N-(((1r,4r)-4-(methylsulfonyl)cyclohexyl)methyl)-1H-pyrazole-3-carboxamide] | 
13 | 24 | 360 | 39 | 210 | CCn1nc(C(=O)NC[C@H]2CC[C@H](S(C)(=O)=O)CC2)c(C)c1-c1cnc(CC(C)(C)C(F)(F)F)cc1C(F)F [Example 29, 5-(4-(Difluoromethyl)-6-(3,3,3-trifluoro-2,2-dimethylpropyl)pyridin-3-yl)-1-ethyl-4-methyl-N-(((1r,4r)-4-(methylsulfonyl)cyclohexyl)methyl)-1H-pyrazole-3-carboxamide] | 
14 | 3.5 | 21 | 98 | 34 | CCn1nc(C(=O)NC[C@H]2CC[C@H](S(C)(=O)=O)CC2)c(Cl)c1-c1cnc(CC(C)(C)C(F)F)cc1OC(F)F [Example 37, 4-Chloro-5-(6-(3,3-difluoro-2,2-dimethylpropyl)-4-(difluoromethoxy)pyridin-3-yl)-1-ethyl-N-(((1r,4r)-4-(methylsulfonyl)cyclohexyl)methyl)-1H-pyrazole-3-carboxamide] | 
15 | 35 | 210 | 82 |  | CCc1cc(CCC(C)(C)C)ncc1-c1c(Cl)c(C(=O)NC[C@]2(O)CC[C@@H](S(C)(=O)=O)CC2)nn1CC [Example 59, 4-Chloro-5-(6-(3,3-dimethylbutyl)-4-ethylpyridin-3-yl)-1-ethyl-N-(((1s,4s)-1-hydroxy-4-(methylsulfonyl)cyclohexyl)methyl)-1H-pyrazole-3-carboxamide] | 
16 | 11 | 240 |  |  | CCn1nc(C(=O)NC[C@H]2CC[C@H](S(C)(=O)=O)CC2)c(Cl)c1-c1cnc(CC(C)C(F)(F)F)cc1OC (stereo partly drawn) [Example 60, 4-Chloro-1-ethyl-5-(4-methoxy-6-(3,3,3-trifluoro-2-methylpropyl)pyridin-3-yl)-N-(((1r,4r)-4-(methylsulfonyl)cyclohexyl)methyl)-1H-pyrazole-3-carboxamide] | inhibition at 6 µM [2]: 88%
17 | 12 | 41 |  |  | CCn1nc(C(=O)NC[C@H]2CC[C@H](S(C)(=O)=O)CC2)c(Cl)c1-c1cnc(O[C@H](C)C(F)(F)F)cc1OC [Example 65] | inhibition at 2 µM [2]: 75%
